Here are results for 6 molecules from US4780412A, “Fibrinolytic enzymes produced from established non-cancerous cell lines” (priority 1982, dated 1988).

Where a name gives a salt, the structure may show the parent alone. Square brackets hold non-standard residues; d marks the D form. Peptide text beside a SMILES is read from it. * marks the point of attachment. pNA = O=[N+]([O-])c1ccc(N*)cc1; Bz = O=C(c1ccccc1)* Where only a bound is given, the exact number is not on record here.

Test [1] concerns the target T1, GPK derived enzyme (from cell line GPK, CNCMI-222) (Cavia porcellus, UniProt H0W0Z7).
T1 construct: residual activity on plasminogen-containing fibrin plate
Nature of the test: Inhibition of GPK-derived enzyme activity by 2-mercaptoethanol (fibrin plate, fibrin clot lysis time). It counts as biochemical. The conditions noted are these: 2-mercaptoethanol at 10 mM or above, incubated 15 min at 37° C., pH 7.8; residual activity on plasminogen containing fibrin plate and by clot lysis time. The method, then:
Various dilutions of the stock solution of 2-mercaptoethanol were prepared in 0.05M sodium diethylbarbiturate buffer, pH 7.8 containing 0.01% Tween 80. GPK derived enzyme (25 μg/ml) was mixed with an equal volume of diluted 2-mercaptoethanol solution and the mixture incubated at 37° C. Control sample contained enzyme with an equal volume of buffer. After 15 min, 50 μl aliquot of the mixture was applied to plasminogen containing fibrin plate to assess the residual enzyme activity. The enzyme activity was also quantitated by fibrin clot lysis time method.

For another test, the system named is Thrombin. The following applies: values quoted in literature; cited from earlier work.
The target in test [2] is Melanoma (malignant melanoma plasminogen activator, HEPA) (Homo sapiens, UniProt P00750). The conditions noted are these: values quoted in literature; cited from earlier work.
Test [3] concerns the target T2, GPK derived enzyme, partially purified (fibrinolytic enzyme / plasminogen activator from cell line GPK, CNCMI-222) (Cavia porcellus, UniProt H0W0Z7).
T2 construct: zinc chelate agarose, partially purified from culture supernatant
The experiment in a line: Amidolytic activity on chromogenic substrates (release of p-nitroaniline at 405 nm). The test is classed as biochemical. The method, then:
The amidolytic activity of the GPK derived enzyme was determined using various chromogenic substrates. […] Z

A further test addresses Urokinase (Homo sapiens, UniProt P00749). The following applies: values quoted in literature; cited from earlier work.
Another test concerns Plasmin. The conditions noted are these: values quoted in literature; cited from earlier work.

T2 sequence (H0W0Z7 33-559): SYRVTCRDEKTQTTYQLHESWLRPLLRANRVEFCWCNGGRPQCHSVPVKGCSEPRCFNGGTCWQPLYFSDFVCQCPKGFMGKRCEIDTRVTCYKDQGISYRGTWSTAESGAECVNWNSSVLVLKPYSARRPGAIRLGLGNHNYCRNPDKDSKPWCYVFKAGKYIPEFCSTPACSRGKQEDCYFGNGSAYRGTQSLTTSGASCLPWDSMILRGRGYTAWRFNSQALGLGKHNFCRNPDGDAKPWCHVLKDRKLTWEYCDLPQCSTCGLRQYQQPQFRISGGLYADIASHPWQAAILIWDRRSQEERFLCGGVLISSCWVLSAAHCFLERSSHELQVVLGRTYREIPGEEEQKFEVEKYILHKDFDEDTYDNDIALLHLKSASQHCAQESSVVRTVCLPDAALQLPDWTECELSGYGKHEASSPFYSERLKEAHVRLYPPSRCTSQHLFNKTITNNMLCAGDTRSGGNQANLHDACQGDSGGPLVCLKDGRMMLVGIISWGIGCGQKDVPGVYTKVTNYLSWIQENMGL
Chain of Melanoma (malignant melanoma plasminogen activator, HEPA) (P00750 36-562): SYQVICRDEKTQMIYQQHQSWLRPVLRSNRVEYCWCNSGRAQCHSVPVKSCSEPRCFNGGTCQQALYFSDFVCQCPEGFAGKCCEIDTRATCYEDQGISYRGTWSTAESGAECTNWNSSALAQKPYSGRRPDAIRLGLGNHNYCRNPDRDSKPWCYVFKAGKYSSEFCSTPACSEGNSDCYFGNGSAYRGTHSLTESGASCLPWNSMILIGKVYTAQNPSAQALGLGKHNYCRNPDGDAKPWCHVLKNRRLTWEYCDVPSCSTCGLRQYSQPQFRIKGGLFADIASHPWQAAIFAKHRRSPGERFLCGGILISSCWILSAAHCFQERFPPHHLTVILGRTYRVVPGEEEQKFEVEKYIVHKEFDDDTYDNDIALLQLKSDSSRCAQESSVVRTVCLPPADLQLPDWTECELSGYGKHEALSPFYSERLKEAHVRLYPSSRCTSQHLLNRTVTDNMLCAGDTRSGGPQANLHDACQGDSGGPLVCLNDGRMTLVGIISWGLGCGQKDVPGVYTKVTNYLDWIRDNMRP
T1 sequence (H0W0Z7 33-559): as the sequence (H0W0Z7 33-559) above

`OCCS` [2-mercaptoethanol]: the “proportion of the enzyme activity inhibited” value in test [1] is greater than 80%.

For the molecule `CC(C)[C@H](NC(=O)[C@H](Cc1ccccc1)NC(=O)c1ccccc1)C(=O)N[C@@H](CCCNC(=N)N)C(=O)Nc1ccc([N+](=O)[O-])cc1` [Benzoyl-Phe--Val--Arg--pNa.HCl] (Bz-Phe-Val-Arg-pNA), in the test on Thrombin, the Km – broadly, the concentration of substrate that gives half-maximal velocity – was 110 µM and the Vmax was 0.036 M/min/NIH.U.

As to `CC(C)[C@H](NC(=O)c1ccccc1)C(=O)NCC(=O)N[C@@H](CCCNC(=N)N)C(=O)Nc1ccc([N+](=O)[O-])cc1` [Benzoyl-Val--Gly--Arg--pNA.HCl] (Bz-Val-Gly-Arg-pNA), the Km in test [2] is 1000 µM. Besides, the Vmax in test [2] is on record as 0.53 M/min/IU; in test [3] (pH 9.0 (line above), ionic strength I 0.0035, substrate concentration by extinction) it was 1.4 M/min/M enzyme; in test [3] (pH 9.0, ionic strength I 0.05, 0.05M Tris-HCl, 37° C.), 1.1 M/min/M enzyme.

Turning to `N=C(N)NCCC[C@H](NC(=O)[C@H](CCC(=O)O)NC(=O)[C@@H](N)CCC(=O)O)C(=O)Nc1ccc([N+](=O)[O-])cc1` [Glu--Glu--Arg--pNA.HCl] (H-Glu-Glu-Arg-pNA), at Urokinase, the Km is 90 µM and the Vmax was 3.1 × 10^-4 M/min/PLOUG.U.

For `CC[C@@H](C)[C@@H](N)C(=O)N1CCC[C@H]1C(=O)N[C@@H](CCCNC(=N)N)C(=O)Nc1ccc([N+](=O)[O-])cc1` [H--D--Ile--Pro--Arg--pNA.2HCl] (H-[dI]-Pro-Arg-pNA), the Km at Urokinase is 200 µM; in the test with Thrombin, 3 µM; in the test on Plasmin it was 9000 µM. Moreover, the Vmax on Urokinase was 2 × 10^-4 M/min/U; in the test with Thrombin, 0.1 M/min/U; in the test on Plasmin it was 5 m/min/U.

For `CC(C)C[C@H](NC(=O)[C@H](N)C(C)C)C(=O)N[C@@H](CCCCN)C(=O)Nc1ccc([N+](=O)[O-])cc1` [H--D--Val--Leu--Lys--pNA.2HCl] (H-[dV]-Leu-Lys-pNA), the Km in the test with Plasmin was 300 µM. In addition, the Vmax in the test with Plasmin was 0.5 M/min/CU; in test [3] (pH 7.4, ionic strength I 0.006, 0.05M Tris-HCl, 37° C.), 27 M/min/M enzyme; in test [3] (pH 7.4, ionic strength I 0.15, 0.05M Tris-HCl, 37° C.) it was 14.7 M/min/M enzyme; in test [3] (pH 9.0, ionic strength I 0.15, 0.05M Tris-HCl, 37° C.) it was 4.08 M/min/M enzyme.
